Data as given in the kinase profiling compilation of Christmann-Franck et al. (2016).

Assays:
Test in all cases: radiometric filter-binding kinase assay
BRSK2 (human) = BRSK2 (human) (UniProt Q8IWQ3)
NUAK1 (human) = NUAK1 (human) (UniProt O60285)
HIPK1 (human) = HIPK1 (human) (UniProt Q86Z02)
PRKCZ (human) = PRKCZ (human) (UniProt Q05513)
MAPK1 (human) = MAPK1 (human) (UniProt P28482)
MAP3K5 (human) = MAP3K5 (human) (UniProt Q99683)
HIPK3 (human) = HIPK3 (human) (UniProt Q9H422)
MAPK3 (human) = MAPK3 (human) (UniProt P27361)
Chain of MAPK3 (human) (P27361 whole entry, looked up): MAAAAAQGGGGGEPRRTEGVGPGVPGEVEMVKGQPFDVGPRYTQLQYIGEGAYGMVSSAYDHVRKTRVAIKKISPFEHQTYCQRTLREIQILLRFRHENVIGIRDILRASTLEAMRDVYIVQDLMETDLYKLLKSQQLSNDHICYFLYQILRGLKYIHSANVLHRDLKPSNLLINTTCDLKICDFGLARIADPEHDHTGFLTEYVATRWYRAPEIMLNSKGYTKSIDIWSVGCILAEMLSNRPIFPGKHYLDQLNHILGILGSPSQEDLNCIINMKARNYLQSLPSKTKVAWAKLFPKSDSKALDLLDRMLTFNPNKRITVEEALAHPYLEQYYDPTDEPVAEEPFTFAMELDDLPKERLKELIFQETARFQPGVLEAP

CDK2 CCNA2 (human) = CDK2 CCNA2 (human) (UniProt P20248+P24941)
CLK2 (human) = CLK2 (human) (UniProt P49760)
DAPK1 (human) = DAPK1 (human) (UniProt P53355)
EEF2K (human) = EEF2K (human) (UniProt O00418)
STK3 (human) = STK3 (human) (UniProt Q13188)
MST4 (human) = MST4 (human) (UniProt Q9P289)
RPS6KA5 KD1 KD2 (human) = RPS6KA5 KD1 KD2 (human) (UniProt O75582)
JAK2 JH1 JH2 (human) = JAK2 JH1 JH2 (human) (UniProt O60674)
AURKA (human) = AURKA (human) (UniProt O14965)
EPHB4 (human) = EPHB4 (human) (UniProt P54760)
ERBB4 (human) = ERBB4 (human) (UniProt Q15303); details: compound 10.0 µM
RPS6KA3 KD1 KD2 (human) = RPS6KA3 KD1 KD2 (human) (UniProt P51812)
GCK (human) = GCK (human) (UniProt Q12851); details: compound 1.0 µM
PAK6 (human) = PAK6 (human) (UniProt Q9NQU5)
FLT1 (human) = FLT1 (human) (UniProt P17948); details: compound 10.0 µM
MARK3 (human) = MARK3 (human) (UniProt P27448)
SRC (human) = SRC (human) (UniProt P12931)
RPS6KA1 KD1 KD2 (human) = RPS6KA1 KD1 KD2 (human) (UniProt Q15418)
TAOK1 (human) = TAOK1 (human) (UniProt Q7L7X3)
CHEK2 (human) = CHEK2 (human) (UniProt O96017)
Chain of CHEK2 (human) (O96017 whole entry, looked up): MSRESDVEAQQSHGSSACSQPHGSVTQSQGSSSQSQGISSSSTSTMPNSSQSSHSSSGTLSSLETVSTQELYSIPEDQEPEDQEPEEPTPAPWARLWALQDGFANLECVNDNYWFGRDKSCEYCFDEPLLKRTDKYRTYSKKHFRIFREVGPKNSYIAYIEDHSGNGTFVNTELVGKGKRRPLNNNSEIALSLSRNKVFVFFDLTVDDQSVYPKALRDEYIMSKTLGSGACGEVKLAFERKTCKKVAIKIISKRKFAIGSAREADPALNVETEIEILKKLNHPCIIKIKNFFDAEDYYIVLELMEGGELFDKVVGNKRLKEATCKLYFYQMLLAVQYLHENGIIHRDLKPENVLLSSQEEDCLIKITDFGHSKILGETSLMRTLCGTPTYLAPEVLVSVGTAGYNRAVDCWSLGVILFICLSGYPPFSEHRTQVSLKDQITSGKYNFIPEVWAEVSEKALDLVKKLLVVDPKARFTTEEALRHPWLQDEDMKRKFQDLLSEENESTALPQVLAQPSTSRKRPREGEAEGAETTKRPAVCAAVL

NTRK1 (human) = NTRK1 (human) (UniProt P04629)
CHEK1 (human) = CHEK1 (human) (UniProt O14757)
[1] = tested on: SGK1 (human), O00141 [S422D]
Chain of SGK1 (human), O00141 [S422D] (O00141 whole entry S422D, looked up): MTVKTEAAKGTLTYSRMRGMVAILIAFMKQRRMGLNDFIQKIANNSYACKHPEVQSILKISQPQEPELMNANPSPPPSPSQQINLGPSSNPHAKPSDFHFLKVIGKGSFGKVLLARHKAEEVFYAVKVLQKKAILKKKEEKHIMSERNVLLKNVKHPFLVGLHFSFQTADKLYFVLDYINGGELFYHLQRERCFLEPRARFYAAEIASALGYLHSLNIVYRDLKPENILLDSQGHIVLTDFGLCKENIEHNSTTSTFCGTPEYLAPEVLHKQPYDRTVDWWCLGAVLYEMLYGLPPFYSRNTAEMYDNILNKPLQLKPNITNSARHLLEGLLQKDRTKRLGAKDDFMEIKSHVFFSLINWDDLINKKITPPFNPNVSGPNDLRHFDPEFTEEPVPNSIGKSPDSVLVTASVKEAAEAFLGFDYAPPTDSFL

PLK1 (human) = PLK1 (human) (UniProt P53350)
Chain of PLK1 (human) (P53350 whole entry, looked up): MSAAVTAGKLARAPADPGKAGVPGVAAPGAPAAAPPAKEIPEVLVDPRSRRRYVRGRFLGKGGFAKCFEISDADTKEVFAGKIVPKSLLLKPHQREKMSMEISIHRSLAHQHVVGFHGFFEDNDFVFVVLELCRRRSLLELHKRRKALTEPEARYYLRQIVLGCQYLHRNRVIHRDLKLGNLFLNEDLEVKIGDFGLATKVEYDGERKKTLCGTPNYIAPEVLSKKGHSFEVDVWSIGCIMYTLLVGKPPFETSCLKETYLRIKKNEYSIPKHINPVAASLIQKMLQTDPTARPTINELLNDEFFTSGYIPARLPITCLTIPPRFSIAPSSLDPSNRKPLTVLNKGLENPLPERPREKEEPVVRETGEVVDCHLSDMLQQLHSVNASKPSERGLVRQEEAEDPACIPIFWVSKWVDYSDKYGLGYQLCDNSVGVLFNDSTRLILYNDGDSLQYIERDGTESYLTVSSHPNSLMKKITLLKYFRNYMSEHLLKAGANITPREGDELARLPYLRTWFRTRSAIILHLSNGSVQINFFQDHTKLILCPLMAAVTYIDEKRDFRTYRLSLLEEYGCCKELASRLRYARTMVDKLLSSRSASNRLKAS

PRKCA (human) = PRKCA (human) (UniProt P17252)
MARK4 (human) = MARK4 (human) (UniProt Q96L34)

Chain of MAP3K5 (human) (Q99683 whole entry, looked up): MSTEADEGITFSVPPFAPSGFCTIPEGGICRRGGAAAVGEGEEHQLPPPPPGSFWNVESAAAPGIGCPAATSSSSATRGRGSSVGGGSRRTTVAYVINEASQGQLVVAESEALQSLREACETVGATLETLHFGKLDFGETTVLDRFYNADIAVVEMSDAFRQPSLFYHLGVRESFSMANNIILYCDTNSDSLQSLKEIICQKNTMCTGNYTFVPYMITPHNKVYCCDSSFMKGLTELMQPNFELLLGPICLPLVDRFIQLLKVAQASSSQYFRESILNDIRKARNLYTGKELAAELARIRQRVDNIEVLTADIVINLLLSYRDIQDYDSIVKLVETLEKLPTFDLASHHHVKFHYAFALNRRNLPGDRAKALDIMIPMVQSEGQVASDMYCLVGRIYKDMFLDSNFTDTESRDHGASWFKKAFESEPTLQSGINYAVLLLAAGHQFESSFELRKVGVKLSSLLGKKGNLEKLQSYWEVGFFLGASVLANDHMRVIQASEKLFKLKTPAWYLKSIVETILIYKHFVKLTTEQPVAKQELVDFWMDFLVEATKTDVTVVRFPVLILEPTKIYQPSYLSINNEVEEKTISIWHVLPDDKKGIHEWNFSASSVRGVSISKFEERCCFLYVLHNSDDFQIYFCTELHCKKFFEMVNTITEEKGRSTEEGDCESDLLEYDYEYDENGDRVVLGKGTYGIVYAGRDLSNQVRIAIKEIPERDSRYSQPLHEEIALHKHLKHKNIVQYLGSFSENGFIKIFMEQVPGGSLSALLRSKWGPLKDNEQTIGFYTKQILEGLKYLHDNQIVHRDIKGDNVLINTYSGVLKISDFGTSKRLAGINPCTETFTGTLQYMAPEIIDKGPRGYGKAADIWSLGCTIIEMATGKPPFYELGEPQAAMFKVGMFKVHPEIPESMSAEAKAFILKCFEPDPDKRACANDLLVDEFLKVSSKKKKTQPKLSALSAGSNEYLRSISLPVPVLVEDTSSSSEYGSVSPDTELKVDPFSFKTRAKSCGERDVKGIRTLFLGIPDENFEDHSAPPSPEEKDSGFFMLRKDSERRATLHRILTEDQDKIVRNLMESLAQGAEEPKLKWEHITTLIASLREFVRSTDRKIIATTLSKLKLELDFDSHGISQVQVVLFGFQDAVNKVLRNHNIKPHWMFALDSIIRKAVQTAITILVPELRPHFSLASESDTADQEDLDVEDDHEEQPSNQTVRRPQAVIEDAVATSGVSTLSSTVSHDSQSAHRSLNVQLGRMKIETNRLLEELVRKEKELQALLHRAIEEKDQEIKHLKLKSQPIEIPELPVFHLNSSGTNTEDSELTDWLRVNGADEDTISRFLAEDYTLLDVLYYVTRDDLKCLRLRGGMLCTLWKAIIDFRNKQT
Chain of NUAK1 (human) (O60285 whole entry, looked up): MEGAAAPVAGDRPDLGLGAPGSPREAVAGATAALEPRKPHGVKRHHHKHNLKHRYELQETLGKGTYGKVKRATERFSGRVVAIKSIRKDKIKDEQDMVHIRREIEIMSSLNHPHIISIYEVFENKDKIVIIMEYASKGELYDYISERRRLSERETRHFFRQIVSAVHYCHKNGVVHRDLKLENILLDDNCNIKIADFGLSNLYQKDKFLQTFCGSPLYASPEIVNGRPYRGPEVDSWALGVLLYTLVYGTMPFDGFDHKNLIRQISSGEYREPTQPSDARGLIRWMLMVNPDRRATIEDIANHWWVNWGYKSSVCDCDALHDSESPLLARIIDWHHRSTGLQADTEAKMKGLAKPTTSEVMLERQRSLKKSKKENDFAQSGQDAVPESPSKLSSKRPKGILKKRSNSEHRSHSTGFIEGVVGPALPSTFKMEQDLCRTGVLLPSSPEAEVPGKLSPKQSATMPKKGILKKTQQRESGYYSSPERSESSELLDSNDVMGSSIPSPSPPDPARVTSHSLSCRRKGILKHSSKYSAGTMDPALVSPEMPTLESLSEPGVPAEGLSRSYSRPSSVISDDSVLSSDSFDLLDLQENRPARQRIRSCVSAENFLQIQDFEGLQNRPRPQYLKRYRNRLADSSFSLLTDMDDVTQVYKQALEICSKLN
Chain of MAPK1 (human) (P28482 whole entry, looked up): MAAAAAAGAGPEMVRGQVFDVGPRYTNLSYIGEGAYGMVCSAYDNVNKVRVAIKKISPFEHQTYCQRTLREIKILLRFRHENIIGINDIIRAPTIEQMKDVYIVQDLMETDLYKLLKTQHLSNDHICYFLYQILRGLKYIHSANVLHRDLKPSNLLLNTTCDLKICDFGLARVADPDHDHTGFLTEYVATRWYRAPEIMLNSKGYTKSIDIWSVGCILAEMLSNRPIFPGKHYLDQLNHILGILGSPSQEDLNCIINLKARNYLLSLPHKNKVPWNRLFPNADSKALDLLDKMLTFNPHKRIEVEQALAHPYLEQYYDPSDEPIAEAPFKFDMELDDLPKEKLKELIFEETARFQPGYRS

O=C(NOC[C@H](O)CO)c1ccc(F)c(F)c1Nc1ccc(I)cc1Cl
residual activity (BRSK2 (human); compound 1.0 µM): 94% | residual activity (BRSK2 (human); compound 10.0 µM): 96% | residual activity (NUAK1 (human); compound 1.0 µM): 89% | residual activity (NUAK1 (human); compound 10.0 µM): 107% | residual activity (HIPK1 (human); compound 1.0 µM): 84% | residual activity (HIPK1 (human); compound 10.0 µM): 92% | residual activity (PRKCZ (human); compound 1.0 µM): 97% | residual activity (PRKCZ (human); compound 10.0 µM): 104% | residual activity (MAPK1 (human); compound 1.0 µM): 90% | residual activity (MAPK1 (human); compound 10.0 µM): 100% | residual activity (MAP3K5 (human); compound 1.0 µM): 108% | residual activity (MAP3K5 (human); compound 10.0 µM): 116% | residual activity (HIPK3 (human); compound 1.0 µM): 101% | residual activity (HIPK3 (human); compound 10.0 µM): 107% | residual activity (MAPK3 (human); compound 1.0 µM): 88% | residual activity (MAPK3 (human); compound 10.0 µM): 106% | residual activity (CDK2 CCNA2 (human); compound 1.0 µM): 110% | residual activity (CDK2 CCNA2 (human); compound 10.0 µM): 109% | residual activity (CLK2 (human); compound 1.0 µM): 103% | residual activity (CLK2 (human); compound 10.0 µM): 85% | residual activity (DAPK1 (human); compound 1.0 µM): 96% | residual activity (DAPK1 (human); compound 10.0 µM): 90% | residual activity (EEF2K (human); compound 1.0 µM): 83% | residual activity (EEF2K (human); compound 10.0 µM): 93% | residual activity (STK3 (human); compound 1.0 µM): 83% | residual activity (STK3 (human); compound 10.0 µM): 70% | residual activity (MST4 (human); compound 1.0 µM): 103% | residual activity (MST4 (human); compound 10.0 µM): 104% | residual activity (RPS6KA5 KD1 KD2 (human); compound 1.0 µM): 97% | residual activity (RPS6KA5 KD1 KD2 (human); compound 10.0 µM): 96% | residual activity (JAK2 JH1 JH2 (human); compound 1.0 µM): 8% | residual activity (JAK2 JH1 JH2 (human); compound 10.0 µM): 9% | residual activity (AURKA (human); compound 1.0 µM): 112% | residual activity (AURKA (human); compound 10.0 µM): 108% | residual activity (EPHB4 (human); compound 1.0 µM): 90% | residual activity (EPHB4 (human); compound 10.0 µM): 99% | residual activity (ERBB4 (human)): 87% | residual activity (RPS6KA3 KD1 KD2 (human); compound 1.0 µM): 104% | residual activity (RPS6KA3 KD1 KD2 (human); compound 10.0 µM): 92% | residual activity (GCK (human)): 90% | residual activity (PAK6 (human); compound 1.0 µM): 95% | residual activity (PAK6 (human); compound 10.0 µM): 105% | residual activity (FLT1 (human)): 39% | residual activity (MARK3 (human); compound 1.0 µM): 91% | residual activity (MARK3 (human); compound 10.0 µM): 74% | residual activity (SRC (human); compound 1.0 µM): 104% | residual activity (SRC (human); compound 10.0 µM): 91% | residual activity (RPS6KA1 KD1 KD2 (human); compound 1.0 µM): 102% | residual activity (RPS6KA1 KD1 KD2 (human); compound 10.0 µM): 102% | residual activity (TAOK1 (human); compound 1.0 µM): 101% | residual activity (TAOK1 (human); compound 10.0 µM): 109% | residual activity (CHEK2 (human); compound 1.0 µM): 95% | residual activity (CHEK2 (human); compound 10.0 µM): 114% | residual activity (NTRK1 (human); compound 1.0 µM): 72% | residual activity (NTRK1 (human); compound 10.0 µM): 75% | residual activity (CHEK1 (human); compound 1.0 µM): 130% | residual activity (CHEK1 (human); compound 10.0 µM): 122% | residual activity ([1]; compound 1.0 µM): 69% | residual activity ([1]; compound 10.0 µM): 74% | residual activity (PLK1 (human); compound 1.0 µM): 81% | residual activity (PLK1 (human); compound 10.0 µM): 92% | residual activity (PRKCA (human); compound 1.0 µM): 100% | residual activity (PRKCA (human); compound 10.0 µM): 108% | residual activity (MARK4 (human); compound 1.0 µM): 112% | residual activity (MARK4 (human); compound 10.0 µM): 127%
